Source: patent US7964624B1, “Inhibitors of serine proteases” (priority 2005, dated 2011)
pKi: −log10 of the molar value.

Legend:
HCV NS3 protease domain = molecular target: T1, HCV NS3 protease domain (Hepatitis C virus genotype 1b, UniProt Q9WMX2); test: biochemical; details: Enzyme Assay 1 (HCV NS3 Protease Domain Peptide Cleavage Assay) activity, apparent Ki class
T1 construct: The first 181 amino acids of NS3 (residues 1027-1207 of the viral polyprotein); hexa-histidine (C); made in house; host or cells: E. coli BL21/DE3 pLysS

[1] = molecular target: T2, full-length hepatitis C viral protein NS3•4A (Hepatitis C virus genotype 1a, UniProt P27958); test: biochemical; set-up: species or system HCV sub-type strain 1a; details: Enzyme Assay 2 (HCV NS3 Peptide Cleavage Assay) activity, apparent Ki class
T2 construct: hexa-histidine (N); made in house; host or cells: Sf9 insect cells (baculovirus, pVL1392)

| Structure (SMILES) | pKi (HCV NS3 protease domain) | pKi [1] |
| --- | --- | --- |
| CCC[C@H](NC(=O)[C@@H]1C[C@]2(CC(c3ccsc3)=NO2)CN1C(=O)[C@@H](NC(=O)CC1CCCCC1)C(C)(C)C)C(=O)C(=O)NC1CC1 [Compound 168] | 6.30 to 7.00 | 6.30 to 7.00 |
| CCC[C@H](NC(=O)[C@@H]1C[C@]2(CC(c3cccc(Cl)c3)=NO2)CN1C(=O)[C@@H](Nc1ccccc1)C(C)(C)C)C(=O)C(=O)NC1CC1 [Compound 172] | < 6.30 | 6.30 to 7.00 |
| CCC[C@H](NC(=O)[C@@H]1C[C@]2(CC(c3cccc(Cl)c3)=NO2)CN1C(=O)[C@@H](NC(=O)CC1CCCCC1)C(C)(C)C)C(=O)C(=O)NCc1csc(-c2ccccc2)n1 [Compound 176] | 6.30 to 7.00 | 6.30 to 7.00 |
| CCC[C@H](NC(=O)[C@@H]1C[C@]2(CC(c3ccc(C#N)cc3)=NO2)CN1C(=O)[C@@H](NC(=O)CC1CCOCC1)C(C)(C)C)C(=O)C(=O)NC1CC1 [Compound 177] | < 6.30 | 6.30 to 7.00 |
| CCC[C@H](NC(=O)[C@@H]1C[C@]2(CC(c3cccc(Cl)c3)=NO2)CN1C(=O)[C@@H](NC(=O)CC1CCCCC1)C(C)(C)C)C(=O)C(=O)Nc1ccc2c(C)cc(=O)[nH]c2c1 [Compound 181] | < 6.30 | < 6.30 |
| CCC[C@H](NC(=O)[C@@H]1C[C@]2(CC(c3cccc(Cl)c3)=NO2)CN1C(=O)[C@@H](NC(=O)CC1CCCCC1)C(C)(C)C)C(=O)C(=O)N(C)CC [Compound 182] | < 6.30 | < 6.30 |
| CCC[C@H](NC(=O)[C@@H]1C[C@]2(CC(c3cccc(Cl)c3)=NO2)CN1C(=O)[C@H](Cc1ccsc1)NC(=O)CC1CCCCC1)C(=O)C(=O)NC1CC1 [Compound 185] | < 6.30 | 6.30 to 7.00 |
| CCC[C@H](NC(=O)[C@@H]1C[C@]2(CC(c3cccc(Cl)c3)=NO2)CN1C(=O)[C@@H](NC(=O)CC1CCCCC1)C(C)(C)C)C(=O)C(=O)N1CC[C@@H](NC(C)=O)C1 [Compound 186] | < 6.30 | < 6.30 |
| CN(C)C(=O)C(=O)[C@@H](CC1CCC1)NC(=O)[C@@H]1C[C@]2(CC(c3cccc(Cl)c3)=NO2)CN1C(=O)[C@@H](NC(=O)CC1CCCCC1)C(C)(C)C [Compound 188] | < 6.30 | < 6.30 |
| C=C[C@@H]1C[C@]1(NC(=O)[C@@H]1C[C@]2(CC(c3cccc(Cl)c3)=NO2)CN1C(=O)[C@@H](NC(=O)OC1CCCC1)C(C)(C)C)C(=O)NS(=O)(=O)C1CC1 [Compound 190] | 6.30 to 7.00 | > 7.00 |
| CCC[C@H](NC(=O)[C@@H]1C[C@]2(CC(c3ccc4c(c3)CCC(C)(C)O4)=NO2)CN1C(=O)[C@@H](NC(=O)CC1CCCCC1)C(C)(C)C)C(=O)C(=O)NC1CC1 [Compound 204] | 6.30 to 7.00 | 6.30 to 7.00 |
| CCC[C@H](NC(=O)[C@@H]1C[C@]2(CC(c3cccc(Cl)c3)=NO2)CN1C(=O)[C@@H](NC(=O)CC1CCCCC1)C(C)(C)C)C(=O)C(=O)NCCC(=O)Nc1cc(OC)c2ccccc2c1 [Compound 206] | 6.30 to 7.00 | 6.30 to 7.00 |
| CCC[C@H](NC(=O)[C@@H]1C[C@]2(CC(c3cccc(Cl)c3)=NO2)CN1C(=O)[C@H](Cc1ccc(OC)cc1)NC(=O)CC1CCCCC1)C(=O)C(=O)NC1CC1 [Compound 213] | < 6.30 | < 6.30 |
| CCC[C@H](NC(=O)[C@@H]1C[C@]2(CC(c3cccc(Cl)c3)=NO2)CN1C(=O)[C@@H](NC(=O)C1CCC(=O)N1)C(C)C)C(=O)C(=O)NC1CC1 (stereo partly shown) [Compound 218] | < 6.30 | < 6.30 |
| CCC[C@H](NC(=O)[C@@H]1C[C@]2(CC(c3cccc(Cl)c3)=NO2)CN1C(=O)[C@@H](NC(=O)CC1CCCCC1)C(C)(C)C)C(=O)C(=O)NCCc1ccc2c(c1)OCO2 [Compound 221] | 6.30 to 7.00 | 6.30 to 7.00 |
| CCC[C@H](NC(=O)[C@@H]1C[C@]2(CC(c3cccc(Cl)c3)=NO2)CN1C(=O)C1(C(N)=O)CC1)C(=O)C(=O)NC1CC1 [Compound 227] | < 6.30 | < 6.30 |
| CCC[C@H](NC(=O)[C@@H]1C[C@]2(CC(c3cccc(Cl)c3)=NO2)CN1C(=O)[C@@H](NC(=O)CC1(O)CCCCC1)C(C)(C)C)C(=O)C(=O)NC1CC1 [Compound 233] | 6.30 to 7.00 | > 7.00 |
| CCC[C@H](NC(=O)[C@@H]1C[C@]2(CC(c3cccc(Cl)c3)=NO2)CN1C(=O)[C@@H](NC(=O)[C@@H]1CCC(=O)N1C(C)C)C(C)(C)C)C(=O)C(=O)NC1CC1 [Compound 241] | < 6.30 | 6.30 to 7.00 |
| CCC[C@H](NC(=O)[C@@H]1C[C@]2(CC(c3cccc(Cl)c3)=NO2)CN1C(=O)CCCC(=O)Nc1ccc(C)cc1C)C(=O)C(=O)NC1CC1 [Compound 246] | < 6.30 | < 6.30 |
| CCC[C@H](NC(=O)[C@@H]1C[C@]2(CC(c3cccc(Cl)c3)=NO2)CN1C(=O)c1ccc(Cl)cc1Nc1ccc(OC)nc1)C(=O)C(=O)NC1CC1 [Compound 248] | < 6.30 | < 6.30 |
| CCC[C@H](NC(=O)[C@@H]1C[C@]2(CC(c3cccc(Cl)c3)=NO2)CN1C(=O)[C@@H](NC(=O)C=C1CCCCC1)C(C)(C)C)C(=O)C(=O)NC1CC1 [Compound 252] | 6.30 to 7.00 | > 7.00 |

| Structure (SMILES) | pKi (HCV NS3 protease domain) | pKi [1] |
| --- | --- | --- |
| CCC[C@H](NC(=O)[C@@H]1C[C@]2(CC(c3cccc(Cl)c3)=NO2)CN1C(=O)[C@@H](NC(=O)CC1CCCCC1)C(C)(C)C)C(=O)C(=O)N(C)C [Compound 253] | < 6.30 | < 6.30 |
| CCC[C@H](NC(=O)[C@@H]1C[C@]2(CC(c3cccc(Cl)c3)=NO2)CN1C(=O)[C@@H](NC(=O)CC1CCCCC1)C(C)(C)C)C(=O)C(=O)N[C@@H](C)c1cccc(OC)c1 [Compound 255] | 6.30 to 7.00 | 6.30 to 7.00 |
| CCC[C@H](NC(=O)[C@@H]1C[C@]2(CC(c3cccc(Cl)c3)=NO2)CN1C(=O)[C@@H](NC(=O)CC1CCCCC1)C(C)(C)C)C(=O)C(=O)NCC1CC1 [Compound 265] | < 6.30 | 6.30 to 7.00 |
| C#CC[C@H](C(=O)N[C@H](C(=O)N1C[C@@]2(CC(c3cccc(Cl)c3)=NO2)C[C@H]1C(=O)N[C@@H](CCC)C(=O)C(=O)NC1CC1)C(C)(C)C)C1CCCCC1 [Compound 266] | 6.30 to 7.00 | 6.30 to 7.00 |
| CC(C)(C)[C@H](NC(=O)CC1CCCCC1)C(=O)N1C[C@@]2(CC(c3cccc(Cl)c3)=NO2)C[C@H]1C(=O)NC(CC1CCC1)C(=O)C(=O)NCC(F)(F)F (stereo partly shown) [Compound 268] | 6.30 to 7.00 | < 6.30 |
| C=C[C@@H]1C[C@]1(NC(=O)[C@@H]1C[C@]2(CC(c3cccc(Cl)c3)=NO2)CN1C(=O)[C@@H](NC(=O)O[C@H]1CCOC1)C(C)(C)C)C(=O)O [Compound 269] | < 6.30 | < 6.30 |
| CCC[C@H](NC(=O)[C@@H]1C[C@]2(CC(c3cccc(Cl)c3)=NO2)CN1C(=O)[C@@H](NC(=O)[C@@H]1C[C@H]1c1ccccc1)C(C)(C)C)C(=O)C(=O)NC1CC1 [Compound 271] | 6.30 to 7.00 | > 7.00 |
| CCC[C@H](NC(=O)[C@@H]1C[C@]2(CC(c3cccc(Cl)c3)=NO2)CN1C(=O)[C@@H](NC(=O)CC1CCCCC1)C(C)(C)C)C(=O)C(=O)NC(C)C [Compound 275] | 6.30 to 7.00 | 6.30 to 7.00 |
| CCC[C@H](NC(=O)[C@@H]1C[C@]2(CC(c3cccc(Cl)c3)=NO2)CN1C(=O)[C@@H](NC(=O)CC1CCCCC1)C(C)(C)C)C(=O)C(=O)NC[C@H]1CCCO1 [Compound 277] | < 6.30 | 6.30 to 7.00 |
| CCC[C@H](NC(=O)[C@@H]1C[C@]2(CC(c3cccc(Cl)c3)=NO2)CN1C(=O)[C@@H](CC(=O)NC(C)C)C(C)C)C(=O)C(=O)NC1CC1 [Compound 280] | < 6.30 | < 6.30 |
| COc1cc(OC)c(C2=NO[C@]3(C2)C[C@@H](C(=O)NC(CC2CCC2)C(=O)C(=O)NC2CC2)N(C(=O)[C@@H](NC(=O)CC2CCOCC2)C(C)(C)C)C3)cc1Cl (stereo partly shown) [Compound 282] | < 6.30 | 6.30 to 7.00 |
| CCC[C@H](NC(=O)[C@@H]1C[C@]2(CC(c3cccc(Cl)c3)=NO2)CN1C(=O)[C@@H](NC(=O)[C@@H](C)C1CCCCC1)C(C)(C)C)C(=O)C(=O)NC1CC1 [Compound 284] | 6.30 to 7.00 | 6.30 to 7.00 |
| CCC[C@H](NC(=O)[C@@H]1C[C@]2(CC(c3cccc(Cl)c3)=NO2)CN1C(=O)[C@H](Cc1ccccc1C(F)(F)F)NC(=O)CC1CCCCC1)C(=O)C(=O)NC1CC1 [Compound 289] | < 6.30 | 6.30 to 7.00 |
| CCC[C@H](NC(=O)[C@@H]1C[C@]2(CC(c3cncc(Cl)c3)=NO2)CN1C(=O)[C@@H](NC(=O)CC1CCCCC1)C(C)(C)C)C(=O)C(=O)NC1CC1 [Compound 292] | 6.30 to 7.00 | > 7.00 |
| CCC[C@H](NC(=O)[C@@H]1C[C@]2(CC(c3cccc(Cl)c3)=NO2)CN1C(=O)[C@@H](NC(=O)CC1CCCCC1)C(C)(C)C)C(=O)C(=O)Nc1ccon1 [Compound 293] | < 6.30 | < 6.30 |
| CCC[C@H](NC(=O)[C@@H]1C[C@]2(CC(c3cccc(Cl)c3)=NO2)CN1C(=O)[C@@H](NC(=O)CC1CCCCC1)C(C)(C)C)C(=O)C(=O)N[C@H](C)c1ccccc1 [Compound 296] | < 6.30 | < 6.30 |
| CCC[C@H](NC(=O)[C@@H]1C[C@]2(CC(c3cccc(Cl)c3)=NO2)CN1C(=O)[C@@H](NC(=O)CC1CCCCC1)C(C)(C)C)C(=O)C(=O)NCc1cccc(-n2cccn2)c1 [Compound 298] | 6.30 to 7.00 | 6.30 to 7.00 |
| CCC[C@H](NC(=O)[C@@H]1C[C@]2(CC(c3cccc(Cl)c3)=NO2)CN1C(=O)[C@@H](NC(=O)CC1CCCCC1)C(C)(C)C)C(=O)C(=O)NC(CC)CC [Compound 300] | 6.30 to 7.00 | 6.30 to 7.00 |
| CCC[C@H](NC(=O)[C@@H]1C[C@]2(CC(c3cccc(Cl)c3)=NO2)CN1C(=O)[C@@H](NC(=O)CC1CCCCC1)C(C)(C)C)C(=O)C(=O)NCCc1c[nH]c2ccc(OC)cc12 [Compound 302] | 6.30 to 7.00 | 6.30 to 7.00 |
| CCC[C@H](NC(=O)[C@@H]1C[C@]2(CC(c3cccc(Cl)c3)=NO2)CN1C(=O)[C@@H](NC(=O)CC1CCN(C(C)=O)CC1)C(C)(C)C)C(=O)C(=O)NC1CC1 [Compound 304] | 6.30 to 7.00 | > 7.00 |
